Data: patent US20100196264A1, “USE OF SOMATOSTATIN ANALOGS IN MYOCARDIAL PERFUSION IMAGING” (THE BRIGHAM AND WOMEN'S HOSPITAL, INC., priority 2007, published 2010)

B1: cholecystokinin (peptide, UniProt P06307 21-115, looked up)
Cholecystokinin: QPVPPADPAGSGLQRAEEAPRRQLRVSQRTDGESRAHLGALLARYIQQARKAPSGRMSIVKNLQNLDPSHRISDRDYMGWMDFGRRSAEEYEYPS
modifications: Cholecystokinin
notes: gastric stimulant

Assays:
portal vein flow = details: infusion at various infusion concentrations; adapted from Digestion 1999; 60:132-140; cited from earlier work
[1] = tested on: extracardiac uptake of radiotracer; test: Myocardial perfusion imaging with periprocedural somatostatin analog (examples); type: in vivo
[2] = tested on: gastric mucosal blood flow; details: fifteen minutes after a single bolus injection; laser Doppler flowmeter; adapted from Surg Endosc (2003) 17: 1570-1572; cited from earlier work
SST3 = SST3 (Homo sapiens, UniProt P32745); details: cited from earlier work
Sequence of SST3 (P32745 whole entry): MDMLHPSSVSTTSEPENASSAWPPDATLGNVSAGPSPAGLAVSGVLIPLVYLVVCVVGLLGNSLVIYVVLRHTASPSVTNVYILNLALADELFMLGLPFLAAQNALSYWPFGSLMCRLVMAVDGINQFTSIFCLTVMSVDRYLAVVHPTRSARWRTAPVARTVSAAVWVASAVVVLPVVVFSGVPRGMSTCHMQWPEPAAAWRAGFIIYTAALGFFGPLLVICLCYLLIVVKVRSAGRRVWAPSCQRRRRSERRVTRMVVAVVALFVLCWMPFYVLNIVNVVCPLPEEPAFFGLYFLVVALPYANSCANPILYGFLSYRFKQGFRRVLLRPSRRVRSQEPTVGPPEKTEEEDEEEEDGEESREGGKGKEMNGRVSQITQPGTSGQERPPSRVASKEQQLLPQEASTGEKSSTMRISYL

SST2 = SST2 (Homo sapiens, UniProt P30874); details: cited from earlier work
Sequence of SST2 (P30874 whole entry): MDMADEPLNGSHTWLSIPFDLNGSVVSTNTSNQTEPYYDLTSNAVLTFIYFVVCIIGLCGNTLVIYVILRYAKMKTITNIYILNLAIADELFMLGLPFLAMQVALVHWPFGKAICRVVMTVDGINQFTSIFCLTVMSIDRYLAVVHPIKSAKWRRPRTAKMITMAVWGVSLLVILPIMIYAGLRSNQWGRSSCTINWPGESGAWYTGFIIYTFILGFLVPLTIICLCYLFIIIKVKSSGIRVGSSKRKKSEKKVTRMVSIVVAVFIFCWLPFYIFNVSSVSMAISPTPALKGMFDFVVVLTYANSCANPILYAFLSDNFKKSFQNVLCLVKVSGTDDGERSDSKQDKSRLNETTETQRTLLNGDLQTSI

SST1 = SST1 (Homo sapiens, UniProt P30872); details: cited from earlier work
Sequence of SST1 (P30872 whole entry): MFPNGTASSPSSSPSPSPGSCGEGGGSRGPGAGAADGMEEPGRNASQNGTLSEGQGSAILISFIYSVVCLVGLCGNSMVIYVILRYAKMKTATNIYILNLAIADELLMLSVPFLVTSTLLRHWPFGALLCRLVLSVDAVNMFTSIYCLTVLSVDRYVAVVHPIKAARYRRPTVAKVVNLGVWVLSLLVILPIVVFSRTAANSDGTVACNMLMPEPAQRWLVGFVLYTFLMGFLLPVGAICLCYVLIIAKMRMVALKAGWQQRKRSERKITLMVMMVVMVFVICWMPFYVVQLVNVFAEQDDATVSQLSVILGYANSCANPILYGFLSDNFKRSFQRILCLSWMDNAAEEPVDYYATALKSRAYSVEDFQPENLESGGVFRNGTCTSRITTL

SST4 = SST4 (Homo sapiens, UniProt P31391); details: cited from earlier work
Sequence of SST4 (P31391 whole entry, the tested form may be a part): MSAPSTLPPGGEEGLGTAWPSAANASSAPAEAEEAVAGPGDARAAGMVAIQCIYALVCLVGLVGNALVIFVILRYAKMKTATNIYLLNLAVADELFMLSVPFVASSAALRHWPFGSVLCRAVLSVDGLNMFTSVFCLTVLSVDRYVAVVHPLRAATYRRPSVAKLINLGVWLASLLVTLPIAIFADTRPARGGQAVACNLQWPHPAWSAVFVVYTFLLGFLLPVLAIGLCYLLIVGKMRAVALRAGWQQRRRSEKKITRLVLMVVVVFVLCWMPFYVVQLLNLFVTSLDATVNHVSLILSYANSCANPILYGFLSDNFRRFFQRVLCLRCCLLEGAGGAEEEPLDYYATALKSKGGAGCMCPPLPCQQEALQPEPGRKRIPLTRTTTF

[3] = tested on: abdominal radiotracer uptake; details: literature, cited from earlier work; for obscuring effect of abdominal radiotracer uptake: myocardial perfusion imaging
[4] = typical administration at rest; Cardiolite Product Insert; cited from earlier work

Molecule	affinity for SST3 (in words) (SST3)	affinity for SST2 (in words) (SST2)	affinity for SST1 (in words) (SST1)	affinity for SST4 (in words) (SST4)	obscuring effect of abdominal radiotracer uptake [3]	other results
C[C@@H](O)[C@@H]1NC(=O)[C@H](CCCCN)NC(=O)[C@@H](Cc2c[nH]c3ccccc23)NC(=O)[C@H](Cc2ccccc2)NC(=O)[C@@H](NC(=O)[C@H](N)Cc2ccccc2)CSSC[C@@H](C(=O)N[C@H](CO)[C@@H](C)O)NC1=O [Octreotide, octreotide]	displaying affinity	displaying affinity	virtually no affinity	virtually no affinity	–	portal vein flow (portal vein flow): decrease; extracardiac uptake of radiotracer ([1]; 100 mcg bolus fifteen minutes prior to radiotracer, then 100 mcg per hour constant infusion, adenosine stress): reduced; extracardiac uptake of radiotracer ([1]; 100 mcg bolus ten minutes prior to radiotracer, second 100 mcg bolus ten minutes prior to adenosine stress): reduced; reduction in gastric mucosal blood flow [2]: 50%
CC(C)[C@@H]1NC(=O)[C@H](CCCCN)NC(=O)[C@@H](Cc2c[nH]c3ccccc23)NC(=O)[C@H](Cc2ccc(O)cc2)NC(=O)[C@@H](NC(=O)[C@H](N)Cc2ccc3ccccc3c2)CSSC[C@@H](C(=O)N[C@H](C(N)=O)[C@@H](C)O)NC1=O [lanreotide]	displaying affinity	displaying affinity	virtually no affinity	virtually no affinity	–	extracardiac uptake of radiotracer ([1]; 200 mcg bolus thirty minutes prior to radiotracer, then 200 mcg per hour infusion for rest injections, treadmill exercise stress): reduced
CCN(CC)CCNC(=O)c1cc(Cl)c(N)cc1OC [metoclopromide]	–	–	–	–	did not significantly decrease	–
[C-]#[N+]CC(C)(C)OC.[C-]#[N+]CC(C)(C)OC.[C-]#[N+]CC(C)(C)OC.[C-]#[N+]CC(C)(C)OC.[C-]#[N+]CC(C)(C)OC.[C-]#[N+]CC(C)(C)OC.[Tc] [Tc-99m-setsamibi]	–	–	–	–	–	total dose absorbed into the liver [4]: 19%; total dose taken into the heart [4]: 1.2%
Cn1c(=O)c2[nH]cnc2n(C)c1=O [aminophyllin]	–	–	–	–	–	artifacts in images taken after the dipyridamole injection ([3]; used to counter dipyridamole stress): does not prevent artifacts
B1	–	–	–	–	without success	–
